Converted amounts (≈) assume the structure as drawn.
Columns and labels:
Experiment in all cases: microbe, parasite or virus in culture
[1] = tested on: Mycobacterium tuberculosis; conditions: 336 h
[2] = tested on: Mycobacterium tuberculosis; conditions: MD55
[3] = tested on: Mycobacterium tuberculosis; conditions: MD96
[4] = tested on: Mycobacterium tuberculosis; conditions: R88
[5] = tested on: Mycobacterium tuberculosis; conditions: R296
[6] = tested on: Mycobacterium tuberculosis; conditions: R3027

Row | Compound | MIC [1] [µM] | also measured
1 | CS(=O)(=O)NC(=O)NCc1cn(-c2ccc(Cl)cc2)nc1-c1ccncc1 | < 0.12 | –
2 | CS(=O)(=O)NC(=O)CCc1cn(-c2ccc(Br)cc2)nc1-c1ccncc1 | – | MIC [2]: 60 µM (≈ 27 µg/mL); MIC [3]: ≤ 30 µM; MIC [4]: 30 µM (≈ 13.5 µg/mL); MIC [5]: 60 µM (≈ 27 µg/mL); MIC [6]: 60 µM (≈ 27 µg/mL)
3 | CS(=O)(=O)NC(=O)NCc1cc(-c2ccc(Br)cc2)oc1-c1ccncc1 | < 0.13 | –
4 | CS(=O)(=O)NC(=O)CCc1cn(-c2ccc(Cl)cc2)nc1-c1ccc(Cl)cc1 | 0.24 (≈ 0.105 µg/mL) | –
5 | CS(=O)(=O)NC(=O)CCc1cn(-c2ccc(Br)cc2)nc1-c1ccc(Cl)cc1 | 0.4 (≈ 0.193 µg/mL) | –
6 | NNC(=O)c1ccncc1 [ISONIAZID] | 31.2 (≈ 4.28 µg/mL) | –
7 | CO[C@H]1/C=C/O[C@@]2(C)Oc3c(C)c(O)c4c(O)c(c(/C=N/N5CCN(C)CC5)c(O)c4c3C2=O)NC(=O)/C(C)=C\C=C\[C@H](C)[C@H](O)[C@@H](C)[C@@H](O)[C@@H](C)[C@H](OC(C)=O)[C@@H]1C [RIFAMPIN] | 0.001 (≈ 0.000823 µg/mL) | –

Source: ChEMBL document CHEMBL4842359, “1,3-Diarylpyrazolyl-acylsulfonamides as Potent Anti-tuberculosis Agents Targeting Cell Wall Biosynthesis in Mycobacterium tuberculosis” (J Med Chem, 2021)
